Assay results taken from patent publication US12016834B2, “Small molecule inhibitors of SLC25A1” (GEORGETOWN UNIVERSITY, priority 2017, dated 2024).

Key:
MP1 cells [1] = experiment: Apoptosis by annexin V and PI flow cytometry; assay type: cell-based, human; settings: drug alone
Procedure: Flow cytometry. Tumor cells were trypsinized and washed in 1×PBS. The cells were then stained with the antibodies of choice: CD166-PE (Biolegend), CD133-647 (Biolegend), or CD44 (Biolegend), in 1% BAS-PBS. The cell cycles of monolayers or spheres of the cells were analyzed by fixing the cells in cold 75% ethanol. The annexin V (Biolegend) and propidium iodide (Biolegend) experiments were carried out.

MP1 cells [2] = experiment: Tumor xenograft in immuno-compromised mice; assay type: in vivo
Procedure: Mice and treatments. To produce tumor xenografts, 5×10^6 cells derived from either monolayer cultures or GMSC expanded spheres were dissociated with Accutase, resuspended in PBS, and injected subcutaneously in the flanks of female balb athymic mice. Once detectable tumors started to form, their sizes were measured with a caliper in three dimensions and mice were randomized in the different treatment groups. […] Cisplatin was administered at 26 mg/kg every three or four days. AZD9291 was administered at 25/mg/Kg every 3 days. Serial measurements were made every day after the identification of the initial tumor mass to determine growth curves in vivo. Tumor volume was calculated using the formula for a prolate spheroid: volume=[…], where a is the width and b is the length. All animals were sacrificed when the tumors exceeded 1.5 cm. At the completion of experiments, tumors were excised, weighed, and the statistical significances of differences in tumor volume were assessed. Animals were monitored once a week for the presence of signs of disease, particularly neurological disturbances or weight loss, and they were weighed periodically.
Statistics. For the animal studies, power calculations for each treatment group were first determined. The number of animals was calculated to detect a 50% difference at alpha=0.05 and power=0.8. Statistical significance was assessed using both unpaired, two-tailed Student t test, and analysis of variance (ANOVA). Significant differences are indicated using the standard […] scale (P<0.05, significant; P<0.01, highly significant; P<0.001, extremely significant).

MP1 cells [3] = experiment: Viability (Crystal Violet) and drug interaction (R index); assay type: cell-based, human; settings: single drug, 5 days, monolayer
Procedure: (§1) Cellular proliferation and cytotoxicity assays. […] The cells were then washed with 1×PBS and fixed with cold 100% methanol at−20° C. for 20 minutes. Methanol was washed off and the cells were stained with 0.5% crystal violet dissolved in 25% methanol and water at 4° C. for 20 minutes. The staining was washed off using deionized (DI) water and the plate was dried overnight. On the second day, 100 mM sodium citrate in 50% ethanol and 50% water was added to the wells and absorbance at 550 nm was measured and corrected with readings at 405 nm. In other experiments, cell viability was assessed by trypan blue exclusion and visual count of the live cells was performed.
(§2) Statistical methods for drug interactions. […] Sexp/Sobs=1.0 denotes an additive interaction, while >1.0 denotes a synergistic interaction. R index values approaching 2.0 are indicative of strong synergy.

MP2 cells [4] = experiment: as above; assay type: cell-based, human; settings: single drug, 5 days, monolayer
Procedure: as §1, §2

MP1 cells [5] = experiment: Seahorse OCR and ATP in patient-derived cells; assay type: cell-based, human; settings: monolayer, chronic treatment for several passages (FIG. 6A)
Procedure: (§3) Primary lung cancer cultures and GMSC. Surgical samples were minced and digested with dispase (50 U/ml) in DMEM media containing 5% serum for 1 hour. Pleural effusions were centrifuged, washed once in PBS, and then plated. All primary cultures were initially grown on 6-well plates pre-coated with 2% Geltrex (Life Technologies; Carlsbad, CA) and 1% Maxgel (Sigma Aldrich). Maxgel is a humanized matrix, native and non-denatured. The inclusion of Maxgel in the system enhanced the initial attachment of primary tumor cells, partially because Maxgel provides a more natural ECM conformational substrate. The day after plating, the media containing unattached cells was typically transferred to a fresh plate, in most of cases generating new attached cultures. The media (Stem Cell Media) is the DMEM/F12 (Thermo-Fisher #11320-033 basic media) supplemented with the following components: Insulin-Transferrin-Sodium selenite (ITS; 1:1000; Sigma #11884); glutamine (Thermo-Fisher) to 4 mM final concentration; sodium pyruvate (Thermo-Fisher) to 2 mM final concentration; rock inhibitor (Y-27632) 10 micrograms/mL; 2-5% Knock Out Serum Replacement (KNOSR, Thermo-Fisher #10828-028); 0.5% ALBUMAX-(Lipid enriched BSA; Thermo-Fisher #11020-021); N2 Supplement (Thermo-Fisher) 1:250; EGF (5 ng/ml; Peprotech); hFGF (20 ng/ml; Bechman); and IGF-1 (Peprotech; 10-20 ng/ml).
(§4) Seahorse extracellular flux analyzer experiments. Cells derived from spheres or monolayer cultures were dissociated and plated overnight at 12,000 cells/well in DMEM with 10% FBS, 5 mM glucose, 1 mM pyruvate, 2 mM glutamine.
(§5) For the mitochondrial stress test, the media was replaced with DMEM without FBS or bicarbonate, containing 5 mM glucose, 1 mM pyruvate, 2 mM glutamine and placed in a CO2 free incubator at 37° C. for 1 hour, and then transferred to the Xf96 extracellular flux analyzer (Agilent; Santa Clara, CA). The program consisted of 3 measurements of OCR/ECAR before the injection of each drug: oligomycin (0.5 μM final concentration), FCCP (2 μM) and rotenone/antimycin (0.5 μM of each). For the glycolysis stress test, cells were plated overnight as above, and the media was washed twice the following day with DMEM without FBS, bicarbonate, glucose, glutamine or pyruvate, and incubated in this media in a CO2 free incubator with/without drug treatments at 37° C. for 4 hours. There were 3 measurements of OCR/ECAR before each injection: glucose (10 mM final concentration), oligomycin (0.5 […] (50 mM). For the analysis of glutamine oxidation, the protocol was the same as the glucose stress test, but with glutamine being the only compound injected (final concentration 4 mM) and OCR/ECAR measured for 60 minutes. When spheres were analyzed, they were dissociated with StemPro® Accutase® (Thermo Scientific; Waltham, MA) and plated under the same conditions as above as for the monolayers the day before the assay (H1299 spheres), or in stem cell media (See Stem Cell Media) with the wells coated in 15 μL of 2% geltrex diluted in DMEM:F12 (Thermo Scientific). The results were normalized to cell number.

H1299 cells [6] = experiment: Sphere forming / self-renewal assay; assay type: cell-based, human; settings: for self-renewal: single-cell derived spheres, Rotenone 10 nM, Oligomycin 1 mM, metformin 3 mM (FIG. 3I)
Procedure: Growth of monolayers and sphere cultures. Tumor cell lines were grown as monolayers in complete Dulbecco's Modified Eagle's Media (DMEM, Gibco; supplemented with 10% fetal bovine serum and 1% of 5,000 units/mL of penicillin-streptomycin (pen-strep), Gibco). To generate spheroids, cells were grown in Falcon bacteriological petri dishes coated with 2% poly(2-hydroxyethyl methacrylate) dissolved in 100% ethanol. The growth media was DMEM/F12 (Gibco) supplemented with 20 ng/mL of epidermal growth factor (EGF), 5 ng/mL of fibroblast growth factor, 0.375% 100× N2 supplements (Gibco), and 1% pen-strep. Monolayer cells were dissociated using 0.25% trypsin-edta (Gibco), whereas spheroid cultures were dissociated using StemPro Accutase (Gibco). Patient derived cell lines were grown as described below in the primary lung cultures section.
Self-renewal assays. Tumor cells cultured as spheroids were dissociated and diluted in 2× sphere media containing 1% methyl cellulose, which was previously dissolved in cold DMEM/F12 media. Either 200, 500, or 1000 cells were then plated in each 96 well and were incubated in the presence or absence of drugs, as indicated. The spheres were allowed to form for a period of a week to ten days, at which point they were counted. Six biological replicates were used for quantification of the results.

H1299 cells [7] = experiment: Proliferation / viability in monolayer (2D) cultures; assay type: cell-based, human; settings: for anti-proliferative activity in 2D cultures: Rotenone 10 nM, Oligomycin 1 mM, metformin 3 mM (FIG. 3I)
Procedure: Cellular proliferation and cytotoxicity assays. The proliferative capacity of cells was assessed by plating cells in triplicate at a concentration of 2,000 to 10,000 cells/well in 96 well plates in triplicate, with or without drug treatment for 48 hours. The cells were then washed with 1×PBS and fixed with cold 100% methanol at−20° C. for 20 minutes. Methanol was washed off and the cells were stained with 0.5% crystal violet dissolved in 25% methanol and water at 4° C. for 20 minutes. The staining was washed off using deionized (DI) water and the plate was dried overnight. On the second day, 100 mM sodium citrate in 50% ethanol and 50% water was added to the wells and absorbance at 550 nm was measured and corrected with readings at 405 nm. In other experiments, cell viability was assessed by trypan blue exclusion and visual count of the live cells was performed.

MP3 cells = experiment: Viability (Crystal Violet) and drug interaction (R index); assay type: cell-based, human; settings: single drug, 5 days, monolayer
Procedure: as §1, §2

MP2 cells [8] = experiment: Seahorse OCR and ATP in patient-derived cells; assay type: cell-based, human; settings: monolayer, chronic treatment for several passages (FIG. 6B)
Procedure: as §3, §4, §5

SLC25A1 = SLC25A1 (Homo sapiens, UniProt P53007); experiment: Surface plasmon resonance (SPR) binding to recombinant purified SLC25A1; settings: steady state, 1:1 binding model; human protein
Procedure: Surface Plasmon Resonance (SPR). SPR experiments were performed on a Biacore 4000 instrument at room temperature. The NTA sensorchip surface was activated by injecting 0.5 mM NiCl2 for 1 minute. Histidine-tagged recombinant purified SLC25A1 protein (0.07 mg/ml stock concentration) was used as the ligand to capture on the sensor surface. SLC25A1 was dissolved (1:50 dilution) in PBS-P (20 mM phosphate buffer (pH 7.4), 2.7 mM KCl, 137 mM NaCl and 0.05% surfactant P20) buffer and captured onto spots 2 and 4. SLC25A1 was captured to a level of ˜3000. PBS-P was used as the capture running buffer. Small molecules were used as analytes to flow over the ligand immobilized surface. Spot 3 of all flow cells were used as reference. The calculated theoretical Rmax was ˜30 RU based on a 1:1 interaction. The kinetics experiments were performed in the presence of HBS-P (10 mM HEPES (pH7.4), 150 mM NaCl, and 0.05% surfactant P20). The flow rate of all the solutions was maintained at 30 μL/min. The analyte concentrations were 0 μM, […], 6.25 μM, 12.5 μM, 25 μM, 50 μM, and 100 μM. Analyte concentrations showing signs of aggregation were excluded from the analysis. Data were analyzed by Biacore BiaEvaluation software for 1:1 steady state binding model.

H1299 cells [9] = experiment: Glycolysis: ECAR (Seahorse) and lactic acid levels; assay type: cell-based, human; settings: sphere-grown CSCs (FIG. 11C)
Procedure: Cells, reagents, antibodies, primers. The H1299 cell lines and other cell lines employed in this study were obtained from ATCC or from the tissue culture core facility at LCCC. Cells were grown in Dulbecco's Modified Eagle's Medium (DMEM, 25 mM glucose, with glutamine and pyruvate from Invitrogen; Carlsbad, CA) and supplemented with 10% fetal calf serum (FCS). […] The SLC25A1 specific shRNA vectors were purchased from Sigma. The vector expressing human SLC25A1 untagged or Flag-Myc epitope tagged were from Origene; Rockville, MD (#SC120727 and RC200657, respectively). The anti-SLC25A1 antibody used in immuno-blot was from Santa Cruz Biotech, #sc-86392 employed at 1:1000 dilution. Citrate, lactate, and PFK measurements were performed by using commercially available kits (Biovision (Milpitas, CA)).
as §4, §5

SLC25A1, sequence (P53007 14-311): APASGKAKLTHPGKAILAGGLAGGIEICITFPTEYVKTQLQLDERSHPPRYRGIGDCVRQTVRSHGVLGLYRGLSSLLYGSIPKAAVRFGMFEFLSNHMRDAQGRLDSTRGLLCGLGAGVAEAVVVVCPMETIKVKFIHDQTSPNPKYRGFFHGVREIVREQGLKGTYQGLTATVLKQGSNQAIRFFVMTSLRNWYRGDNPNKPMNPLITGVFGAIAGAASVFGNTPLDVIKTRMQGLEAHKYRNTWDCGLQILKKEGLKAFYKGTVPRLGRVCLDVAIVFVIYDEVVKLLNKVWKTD

N.N.[Cl][Pt][Cl] [cisplatin, reference compound] was tested, and the apoptosis (MP1 cells [1]) was “did not induce apoptosis”, the “stem cell markers in tumors (immuno-blot)” value (MP1 cells [2]; GMSC-derived tumors (FIG. 7F)) was “enhanced” and the “tumor growth, cisplatin alone” value (MP1 cells [2]; cisplatin 3 mg/Kg every three days (FIG. 7D)) was “inhibition of tumor growth but this effect was lost over time”. The “time until most tumors restarted to grow” value (MP1 cells [2]; cisplatin alone) was “two”, the “response to drug (viability)” value (MP1 cells [3]) was “minimal response” and the “response to drug (viability)” value (MP2 cells [4]) was “minimal response”. For the same molecule, the “mitochondrial respiration after chronic drug treatment” value (MP1 cells [5]) was “dramatic shift towards mitochondrial respiration”.
With CC[C@H]1/C=C/C=C/C[C@@H](C)[C@H](O)[C@@](C)(O)C(=O)[C@@H](C)[C@H](O)[C@@H](C)C(=O)[C@@H](C)[C@H](O)[C@@H](C)/C=C/C(=O)O[C@@H]2[C@H](C)[C@H](CC1)O[C@]1(CC[C@H](C)[C@H](C[C@@H](C)O)O1)[C@H]2C [oligomycyn, oligomycin] the self-renewal (H1299 cells [6]) was “significantly reduced self-renewal” and the “anti-proliferative activity in 2D cultures” value (H1299 cells [7]) was “no anti-proliferative activity”.
For C=CC(=O)Nc1cc(Nc2nccc(-c3cn(C)c4ccccc34)n2)c(OC)cc1N(C)CCN(C)C [AZD9291, osimertinib, reference compound], the “response to drug (viability)” value (MP1 cells [3]) was “minimal response”, the “response to drug (viability)” value (MP2 cells [4]) was “minimal response” and the “response to drug (viability)” value (MP3 cells) was “complete insensitivity”. The “mitochondrial respiration after chronic drug treatment” value (MP2 cells [8]) was “dramatic shift towards mitochondrial respiration”.
In the case of C=C(C)[C@H]1Cc2c(ccc3c2O[C@@H]2COc4cc(OC)c(OC)cc4[C@@H]2C3=O)O1 [rotenone], the self-renewal (H1299 cells [6]) is reported as “significantly reduced self-renewal” and the “anti-proliferative activity in 2D cultures” value (H1299 cells [7]) is reported as “no anti-proliferative activity”.
In the case of O=C(O)c1ccc(Cl)c(S(=O)(=O)Nc2cccc([N+](=O)[O-])c2)c1 [CTPI-1], the “growth inhibitory activity, range of concentrations” value (H1299 cells [6]; human cells (FIGS. 2A and 2E)) is reported as “millimolar range of concentrations”, the sphere forming capacity (H1299 cells [6]; one week after treatment, BTA 2 mM, CTPI 1 mM (FIG. 9F)) is reported as “reduced sphere forming capacity” and the Kd (SLC25A1) is reported as 63.6 µM.
For O=C(O)CCCCC(CCSCc1ccccc1)SCc1ccccc1 (centres unmarked) [CPI-613], the “activity in spheres versus 2D/monolayer cultures” value (H1299 cells [6]; sphere forming assay compared with monolayer) was “more effective in sphere forming assays than in monolayer cultures” and the “anti-proliferative activity, ranges of concentrations” value (H1299 cells [7]; monolayer or methylcellulose single cells (FIG. 3J)) was “anti-proliferative activity at comparable ranges of concentrations”.
With CN(C)C(=N)N=C(N)N [metformin] the glycolytic rates (H1299 cells [9]) was “enhanced glycolytic rates”, the self-renewal (H1299 cells [6]) was “significantly reduced self-renewal” and the “anti-proliferative activity in 2D cultures” value (H1299 cells [7]) was “no anti-proliferative activity”.
